The target of assay [1] is A-Raf kinase (SEQ. ID No: 1) (Homo sapiens (Human), UniProt P10398, Y301D/Y302D). Nature of the assay: Biochemical Assay for A-Raf (1). Particulars: Table J, assay version (1); read-out: ARAF (1) IC50. In short, it runs like this:
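IC50 values were derived by four-parameter sigmoidal fitting of percent inhibition, calculated from reaction rates over the 4–5 h window. Absorbance at 340 nm was tracked for 6 h at 30 °C via coupled PK/LDH NADH depletion. Conditions: 1 mM ATP, 30.1 nM MEK substrate, 5.55 nM A-Raf (Y301D/Y302D), Tris pH 7.5, 1% DMSO.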

Assay [2] deals with B-Raf (V600E) (SEQ. ID NO: 4) kinase (Homo sapiens (Human), UniProt P15056, V600E). Nature of the assay: Biochemical Assay for B-Raf (V600E) (1). Particulars: Table J, BRAF V600E, assay version (1); read-out: BRAF VE (1) IC50. The procedure, abridged:
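Serially diluted compounds tested against 0.03 nM enzyme with 30.1 nM MEK substrate and 1 mM ATP (Tris pH 7.5, 15 mM MgCl2), ATP use coupled to NADH loss via PK/LDH. A340 monitored continuously 6 h, 30 °C; IC50 fitted (four-parameter) from the 3–4 h rate versus no-compound and known-inhibitor controls.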

For the next assay, the system named is H2405 cells. Nature of the assay: H2405 Cell Proliferation Assay (1). Format: cell-based. The following applies: Homo sapiens, NCI-H2405. The procedure, abridged:
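Viability was read by resazurin reduction (ex 540 nm, em 600 nm; 5-6 h with 40 μL of 440 μM stock) after 67-72 h compound exposure at 37 °C.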

In a further assay the test system is Miapaca-2 cells. Briefly: MiaPaca-2 Cell Proliferation Assay (1). The class given is cell-based. The following applies: Homo sapiens, MIA PaCa-2, single agent, read-out: MiaPaca2 (1) IC50. The procedure, abridged: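 Resazurin was added after compound exposure and incubated 5-6 h, then fluorescence read at 540 nm excitation and 600 nm emission to give IC50.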

What is called IC50 is the concentration needed to halve the response being measured.

Chain of B-Raf (V600E) (SEQ. ID NO: 4) kinase (P15056 416-766 V600E): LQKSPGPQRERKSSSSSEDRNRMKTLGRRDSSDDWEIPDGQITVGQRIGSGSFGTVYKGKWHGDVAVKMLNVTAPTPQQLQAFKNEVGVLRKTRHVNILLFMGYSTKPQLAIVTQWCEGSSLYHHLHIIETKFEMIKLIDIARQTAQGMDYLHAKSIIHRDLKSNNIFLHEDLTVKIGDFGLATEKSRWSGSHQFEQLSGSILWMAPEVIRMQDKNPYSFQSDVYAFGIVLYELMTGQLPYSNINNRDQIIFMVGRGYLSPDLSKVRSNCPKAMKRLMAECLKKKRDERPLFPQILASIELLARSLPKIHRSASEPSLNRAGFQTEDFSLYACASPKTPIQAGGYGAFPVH
Chain of A-Raf kinase (SEQ. ID No: 1) (P10398 other isoform, or with tags, fused parts or gaps Y301D (already in the parent)/Y302D (already in the parent)): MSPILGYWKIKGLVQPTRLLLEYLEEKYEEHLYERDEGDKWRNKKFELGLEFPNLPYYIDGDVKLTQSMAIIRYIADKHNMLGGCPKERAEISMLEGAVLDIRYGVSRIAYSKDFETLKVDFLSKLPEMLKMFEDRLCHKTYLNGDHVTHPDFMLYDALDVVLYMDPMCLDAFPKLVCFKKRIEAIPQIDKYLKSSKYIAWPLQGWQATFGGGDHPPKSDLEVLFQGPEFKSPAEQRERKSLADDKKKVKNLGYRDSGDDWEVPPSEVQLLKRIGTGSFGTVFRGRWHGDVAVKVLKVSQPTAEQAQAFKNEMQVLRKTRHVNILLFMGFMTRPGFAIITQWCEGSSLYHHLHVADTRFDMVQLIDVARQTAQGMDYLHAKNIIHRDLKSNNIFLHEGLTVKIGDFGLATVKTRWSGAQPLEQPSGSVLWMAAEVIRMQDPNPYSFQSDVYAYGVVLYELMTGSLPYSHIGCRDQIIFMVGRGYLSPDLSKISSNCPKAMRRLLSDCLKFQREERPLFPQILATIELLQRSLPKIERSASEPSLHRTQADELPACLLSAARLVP

`CNC(=O)c1cc(-c2cnnc(-c3cc(NC(=O)c4ccnc(C5CC5)c4)cnc3C)c2)ccn1` [Example 317]: the IC50 (in assay [1]; in assay [2]; in the assay with H2405 cells) was 1 to 10 µM throughout.
Regarding `COC(=O)Nc1cc(-c2cc(-c3cc(NC(=O)c4ccnc(C(F)F)c4)cnc3C)ccn2)ccn1` [Example 313], the IC50 fell in the range of 1 to 10 µM in assay [1], 1 to 10 µM in assay [2] and 0.1 to 0.5 µM with H2405 cells.
As for `COC(=O)Nc1cc(-c2cc(-c3cc(NC(=O)c4ccnc(C(C)(C)F)c4)cnc3C)ccn2)ccn1` [Example 323], the IC50 is 1 to 10 µM in assay [1], ≤ 0.1 µM in assay [2] and 0.1 to 0.5 µM with H2405 cells.
Consider `CNC(=O)c1cc(-c2cnnc(-c3cc(NC(=O)c4ccnc(C5CC5)c4)ccc3C)c2)ccn1` [Example 326], for which the half-maximal inhibitory concentration (IC50) in assay [1] fell in the range of 1 to 10 µM; in assay [2] it was 0.1 to 0.5 µM; in the assay on H2405 cells, 1 to 10 µM.
Regarding `CNC(=O)c1cc(-c2cnnc(-c3cc(NC(=O)c4ccnc(C(C)(C)C#N)c4)cnc3C)c2)ccn1` [Example 316], the IC50 in assay [1] fell in the range of 1 to 10 µM; in assay [2], 0.1 to 0.5 µM; with H2405 cells, 1 to 10 µM.
With `Cc1ccc(NC(=O)C2CN(C)CCO2)cc1-c1cccc(-c2cc(NC(=O)C3CC3)ncn2)c1` (centres unmarked) [Example 346], the IC50 is 1 to 10 µM in assay [1], ≤ 0.1 µM in assay [2] and 1 to 10 µM in the assay on H2405 cells.
In the case of `CNC(=O)c1cc(-c2cnnc(-c3cc(NC(=O)c4cn(C(C)(C)C)nn4)ccc3C)c2)ccn1` [Example 366], the values for the IC50 (in assay [1]; in assay [2]; in the assay on H2405 cells) were 1 to 10 µM, 0.1 to 0.5 µM and 1 to 10 µM, respectively.
For the compound `CNC(=O)c1cc(-c2cc(-c3cc(C(=O)Nc4ccnc(C(F)(F)F)c4)ccc3C)ccn2)ccn1` [Example 31], the IC50 in assay [1] was 1 to 10 µM; with Miapaca-2 cells, 1 to 10 µM; in assay [2] it was ≤ 0.1 µM.
In the case of `CO[C@H]1CC[C@H](C(=O)Nc2ccc(C)c(-c3ccnc(-c4ccnc(NC(=O)C5CC5)c4)n3)c2)CC1` [Example 341], the half-inhibitory concentration (IC50) in assay [1] is 1 to 10 µM; in assay [2] it was ≤ 0.1 µM.
On to `CC(=O)Nc1cc(-c2cccc(-c3cc(NC(=O)c4ccnc(C(F)(F)F)c4)ccc3C)c2)ccn1` [Example 28], for which the IC50 in assay [1] was 0.5 to 1 µM; in the assay with Miapaca-2 cells, 1 to 10 µM; in assay [2] it was ≤ 0.1 µM.
Consider `COC(=O)Nc1cc(-c2cc(-c3cc(NC(=O)c4ccnc(C(C)(C)F)c4)c(F)cc3C)ccn2)ccn1` [Example 302], for which the 50% inhibitory concentration (IC50) in assay [1] was 1 to 10 µM; in assay [2], ≤ 0.1 µM; with H2405 cells it was 0.1 to 0.5 µM.
On to `CNC(=O)c1cc(-c2cnnc(-c3cc(NC(=O)c4ccc(F)c(C(F)(F)F)c4)ccc3C)c2)ccn1` [Example 329], for which the IC50 in assay [1] is 1 to 10 µM; in assay [2], ≤ 0.1 µM; in the assay on H2405 cells, 0.5 to 1 µM.
In the same order, the values of `CNC(=O)c1cc(-c2cnnc(-c3cc(NC(=O)c4ccc(Cl)c(OC)c4)cnc3C)c2)ccn1` [Example 322] are 1 to 10 µM, 1 to 10 µM and 1 to 10 µM.
Take `COC(=O)Nc1cc(-c2cnnc(-c3cc(NC(=O)c4ccnc(C(C)(C)F)c4)cnc3C)c2)ccn1` [Example 361]: the half-maximal inhibitory concentration (IC50) in assay [1] is 1 to 10 µM; in assay [2] it was 0.1 to 0.5 µM; in the assay on H2405 cells, 0.5 to 1 µM.
`CC(=O)Nc1cc(-c2cc(-c3cc(C(=O)Nc4ccnc(C(F)(F)F)c4)ccc3C)ccn2)ccn1` [Example 26]: the results for the IC50 (in assay [1]; in the assay with Miapaca-2 cells; in assay [2]) were 1 to 10 µM, 1 to 10 µM and ≤ 0.1 µM, respectively.
Turning to `CNC(=O)c1cc(-c2cnnc(-c3cc(NC(=O)c4ccnc(C(F)F)c4)ccc3C)c2)ccn1` [Example 327], the values for the IC50 (in assay [1]; in assay [2]; in the assay on H2405 cells) were 1 to 10 µM, 0.5 to 1 µM and 1 to 10 µM, respectively.
As for `COC(=O)Nc1cc(-c2cnnc(-c3cc(NC(=O)c4cccc(C(C)(C)C#N)c4)ccc3C)c2)ccn1` [Example 311], the values for the IC50 (in assay [1]; in assay [2]; with H2405 cells) were 1 to 10 µM, ≤ 0.1 µM and 0.1 to 0.5 µM, respectively.
In the same order, the values of `CNC(=O)c1cc(-c2cnnc(-c3cc(NC(=O)c4ccnc(C(C)(C)C#N)c4)ccc3C)c2)ccn1` [Example 314] are 1 to 10 µM, ≤ 0.1 µM and 0.5 to 1 µM.
Consider `CO[C@H]1CC[C@H](C(=O)Nc2cnc(C)c(-c3cccc(-c4cc(NC(=O)C5CC5)ncn4)c3)c2)CC1` [Example 347], for which the results for the IC50 (in assay [1]; in assay [2]; in the assay on H2405 cells) were 1 to 10 µM, ≤ 0.1 µM and 1 to 10 µM, respectively.
For the compound `CNC(=O)c1cc(-c2cnnc(-c3cc(NC(=O)c4ccnc(C(C)(C)F)c4)ccc3C)c2)ccn1` [Example 325], the values for the IC50 (in assay [1]; in assay [2]; in the assay on H2405 cells) were 1 to 10 µM, ≤ 0.1 µM and 0.1 to 0.5 µM, respectively.
In the same order, the values of `Cc1ccc(NC(=O)c2ccnc(C(C)(C)F)c2)cc1-c1cc(-c2ccnc(NC(=O)C3CC3)c2)cnn1` [Example 315] are 0.5 to 1 µM, ≤ 0.1 µM and ≤ 0.1 µM.
For the compound `CNC(=O)c1cc(-c2cnnc(-c3cc(NC(=O)c4ccnc(C(C)(C)OC)c4)ccc3C)c2)ccn1` [Example 328], the figures for the IC50 (in assay [1]; in assay [2]; with H2405 cells) were 1 to 10 µM, ≤ 0.1 µM and 0.1 to 0.5 µM, respectively.
Regarding `CNC(=O)c1cc(-c2cc(-c3cc(NC(=O)COCC4CC4)ccc3C)ccn2)ccn1` [Example 358], the half-inhibitory concentration (IC50) in assay [1] is 1 to 10 µM; in assay [2] it was 0.5 to 1 µM; in the assay on H2405 cells it was 1 to 10 µM.
Consider `CNC(=O)c1cc(-c2nccc(-c3cc(NC(=O)c4ccnc(C(F)(F)F)c4)ccc3C)n2)ccn1` [Example 25], for which the IC50 in assay [1] is 1 to 10 µM; in the assay with Miapaca-2 cells, 1 to 10 µM; in assay [2], ≤ 0.1 µM.
Consider `COC(C)(C)c1cc(C(=O)Nc2ccc(C)c(-c3cc(-c4ccnc(NC(=O)C5CC5)c4)cnn3)c2)ccn1` [Example 319], for which the IC50 in assay [1] was 1 to 10 µM; in assay [2], ≤ 0.1 µM; in the assay with H2405 cells, ≤ 0.1 µM.
On to `COC(=O)Nc1cc(-c2cnnc(-c3cc(NC(=O)COCC4CC4)ccc3C)c2)ccn1` [Example 360], for which the IC50 (in assay [1]; in assay [2]; in the assay with H2405 cells) was 1 to 10 µM throughout.
In the case of `Cc1ccc(NC(=O)c2ccnc(C3CC3)c2)cc1-c1cc(-c2ccnc(NC(=O)C3CC3)c2)cnn1` [Example 331], the IC50 in assay [1] is 1 to 10 µM; in assay [2], ≤ 0.1 µM; in the assay on H2405 cells it was 0.1 to 0.5 µM.
On the same counts, the results for `Cc1ncc(NC(=O)c2cnnc(C3CC3)c2)cc1-c1nccc(-c2ccnc(NC(=O)C3CC3)c2)n1` [Example 294] are 1 to 10 µM, ≤ 0.1 µM and 0.1 to 0.5 µM.
On the same counts, the results for `Cc1ccc(NC(=O)c2ccnc(C(C)(C)C#N)c2)cc1-c1cc(-c2ccnc3[nH]ccc23)cnn1` [Example 369] are 1 to 10 µM, ≤ 0.1 µM and 0.5 to 1 µM.
As for `COCCNC(=O)c1cc(-c2cnnc(-c3cc(NC(=O)c4cccc(C5CC5)c4)ccc3C)c2)ccn1` [Example 365], the IC50 was 1 to 10 µM in assay [1], 0.5 to 1 µM in assay [2] and 1 to 10 µM in the assay with H2405 cells.
In the case of `Cc1ccc(NC(=O)c2ccnc(C(C)(C)C#N)c2)cc1-c1nccc(-c2ccnc3c2CC(=O)N3)n1` [Example 22], the half-maximal inhibitory concentration (IC50) in assay [1] is 1 to 10 µM; in the assay on Miapaca-2 cells, 1 to 10 µM; in assay [2], ≤ 0.1 µM.
Turning to `Cc1ccc(NC(=O)c2cc(C(C)(C)C)no2)cc1-c1cc(-c2ccnc(NC(=O)C3CC3)c2)cnn1` [Example 367], the figures for the IC50 (in assay [1]; in assay [2]; in the assay with H2405 cells) were 1 to 10 µM, ≤ 0.1 µM and 0.1 to 0.5 µM, respectively.
On to `CNC(=O)c1cc(-c2cnnc(-c3cc(NC(=O)c4ccnc(C(F)(F)F)c4)ccc3C)c2)ccn1` [Example 364], for which the IC50 in assay [1] was in the range of 1 to 10 µM; in assay [2] it was 0.1 to 0.5 µM; with H2405 cells it was 0.5 to 1 µM.
On to `COC(=O)Nc1cc(-c2cnnc(-c3cc(NC(=O)CC4CCCC4)cnc3C)c2)ccn1` [Example 368], for which the IC50 (in assay [1]; in assay [2]; in the assay with H2405 cells) was 1 to 10 µM throughout.
As to `COC(=O)Nc1cc(-c2cnnc(-c3cc(NC(=O)CN4CCCC4)cnc3C)c2)ccn1` [Example 359], the IC50 (in assay [1]; in assay [2]; with H2405 cells) was 1 to 10 µM in each case.
Take `COC(=O)Nc1cc(-c2nccc(-c3cc(NC(=O)c4ccnc(C(C)(C)C#N)c4)c(F)cc3C)n2)ccn1` [Example 303]: the IC50 is 1 to 10 µM in assay [1], ≤ 0.1 µM in assay [2] and ≤ 0.1 µM in the assay on H2405 cells.
With `CC(=O)Nc1cc(-c2nccc(-c3cc(NC(=O)c4ccnc(C(F)(F)F)c4)ccc3C)n2)ccn1` [Example 24], the results for the IC50 (in assay [1]; in the assay with Miapaca-2 cells; in assay [2]) were 0.5 to 1 µM, 1 to 10 µM and ≤ 0.1 µM, respectively.
Turning to `CC(=O)Nc1cc(-c2cc(-c3cc(NC(=O)c4ccnc(C(F)(F)F)c4)ccc3C)cn(C)c2=O)ccn1` [Example 21, N-(3-(2′-acetamido-1-methyl-2-oxo-1,2-dihydro-[3,4′-bipyridin]-5-yl)-4-methylphenyl)-2-(trifluoromethyl)isonicotinamide], the results for the IC50 (in assay [1]; in the assay with Miapaca-2 cells; in assay [2]) were 1 to 10 µM, 1 to 10 µM and ≤ 0.1 µM, respectively.
